Here are results for 44 compounds from patent US20240368174A1, “Antiviral Heterocyclic Compounds” (Enanta Pharmaceuticals, Inc., priority 2023, published 2024).

Molecules are shown by their SMILES.

One test deals with genotype A, “Long” strain RSV. As to the kind of experiment: RSV-A assay (CPE, ATPlite readout in Hep-2 cells). The conditions noted are these: activity class. The test is classed as cell-based, Human respiratory syncytial virus. The source says: Hep-2 cells, (originally derived from tumors grown in irradiated-cortisonised weanling rats that had been injected with epidermoid carcinoma tissue from the larynx of a person, but later found to be indistinguishable from HeLa cells by PCR DNA analysis), were used for the culturing of genotype A, “Long” strain RSV. Flasks were inoculated with RSV and viral stocks were collected once cytopathic effect (CPE) was greater than 90%. Viral stocks in 25% sucrose media were snap frozen using liquid nitrogen to increase viral stability. Viral stock titers were quantified by tissue culture infectious dose 50% (TCID50) using 8,000 cells per well and 3-fold viral dilutions across a 96-well plate, cultured for 4 days. Viral stock titers were also quantified by a plaque forming unit assay, as described elsewhere.
Following extensive parameter testing, the final assay is run as follows: Hep-2 cells are seeded into the inner 60 wells of a 96-well plate at 8,000 cells per well in a volume of 50 μL using Growth Media (DMEM without phenol red, 1% L-Glut, 1% Penn/Strep, 1% nonessential amino acids, 10% heat-inactivated FBS). 2-fold serial dilutions of control and test compounds are added to the wells in duplicate in a total volume of 25 μL. Viral stock is then added to the wells at a multiplicity of infection (MOI) of 0.1 in a volume of 25 μL, bringing the total volume of each well to 100 μL. The MOI is calculated using the PFU/mL, or TCID50 if unavailable. Each 96-well plate has a control column of 6 wells with cells and virus but no compound (negative control, max CPE), a column with cells but no compound or virus (positive control, minimum CPE), and a column with no cells or virus or compound (background plate/reagent control). The control wells with cells but no virus are given an additional 25 μL of growth media containing an equal quantity of sucrose as those wells receiving the viral stock in order to keep consistent in media and volume conditions. The outer wells of the plate are filled with 125 μL of moat media (DMEM, 1% Penn/Strep) to act as a thermal and evaporative moat around the test wells. Following a 5-day incubation period, the plates are read using ATPlite (50 uL added per well), which quantifies the amount of ATP (a measure of cell health) present in each well. Assay plates are read using the Envision luminometer. […] EC50 ranges are as follows: A<0.2 μM; B>0.2 μM.
A general note: ATP-based viability assays read luminescence as a measure of living cells.
In turn, `COc1cc(C(=O)NC[C@](O)(c2cc3c(c(-c4ccnc(Cl)c4Cl)n2)OC[C@]3(C)C(N)=O)C2CC2)cc2cn(C(F)F)nc12` [Example 732] returned an EC50 below 200 nM.

The same test, now with this note: human respiratory syncytial virus, activity class.
`COc1cc(C(=O)NC[C@](O)(c2cc3c(c(-c4ccnc(C(F)(F)F)c4Cl)n2)OC[C@]3(C)C(N)=O)C2CC2)cc2cn(C3CC3)nc12` [Example 419] returned a 50% effective concentration (EC50) below 200 nM. Consider `COc1cc(C(=O)NC[C@](O)(c2cc3c(c(-c4ccnc5c4ccn5C)n2)OC[C@]3(C)C(N)=O)C2CC2)cc2cn(C3CC3)nc12` [Example 420], for which the EC50 was below 200 nM. Still for that read-out and setting: in the case of `COc1cc(C(=O)NC[C@](O)(c2cc3c(c(-c4ccnc5c4CCC5)n2)OC[C@]3(C)C(N)=O)C2CC2)cc2cn(C3CC3)nc12` [Example 421] it was below 200 nM. `COc1cc(C(=O)NC[C@](O)(c2cc3c(c(-c4ccnc(Cl)c4Cl)n2)OC[C@]3(C)C(N)=O)C2CC2)cc2cn(C(F)F)nc12` [Example 422] registered an EC50 below 200 nM.

For the compound `COc1cc(C(=O)NC[C@](O)(c2cc3c(c(-c4ccn(C)c(=O)c4Cl)n2)OC[C@]3(C)C(N)=O)C2CC2)cc2cn(C3CC3)nc12` [Example 423], the EC50 is above 200 nM. Still for that read-out and setting: the same measure for `COc1cc(C(=O)NC[C@](O)(c2cc3c(c(-c4cc(C(F)(F)F)ncc4F)n2)OC[C@]3(C)C(N)=O)C(F)(F)F)cc2cn(C(F)F)nc12` [Example 424]: below 200 nM. `COc1cc(C(=O)NC[C@](O)(c2cc3c(c(-c4cc(C(F)(F)F)ncc4F)n2)OC[C@]3(C)C(N)=O)C(F)(F)F)cc2cn(C3CC3)nc12` [Example 425] registered an EC50 below 200 nM.

Compound `COc1cc(C(=O)NC[C@](O)(c2cc3c(c(-c4ccnc(C)c4Cl)n2)OC[C@]3(C)C(N)=O)C2CC2)cc2cn(C3CC3)nc12` [Example 426] had an EC50 below 200 nM. With `COc1cc(C(=O)NC[C@](O)(c2cc3c(c(-c4cc[nH]c(=O)c4Cl)n2)OC[C@]3(C)C(N)=O)C2CC2)cc2cn(C3CC3)nc12` [Example 436], the half-maximal effective concentration (EC50) was above 200 nM. Still for that read-out and setting: in the case of `COc1cc(C(=O)NC[C@](O)(c2cc3c(c(-c4cc(C(F)F)ncc4Cl)n2)OC[C@]3(C)C(N)=O)C2CC2)cc2cn(C3CC3)nc12` [Example 437] it was below 200 nM. Still for that read-out and setting: the same measure for `COc1cc(C(=O)NC[C@](O)(c2cc3c(c(-c4ccnc(OC(F)F)c4Cl)n2)OC[C@]3(C)C(N)=O)C2CC2)cc2cn(C3CC3)nc12` [Example 438]: below 200 nM; for `COc1cc(C(=O)NC[C@](O)(c2cc3c(c(-c4cccc(OC(F)F)c4Cl)n2)OC[C@]3(C)C(N)=O)C2CC2)cc2cn(C3CC3)nc12` [Example 439]: below 200 nM; for `COc1cc(C(=O)NC[C@](O)(c2cc3c(c(-c4cccc(OC(F)(F)F)c4Cl)n2)OC[C@]3(C)C(N)=O)C2CC2)cc2cn(C3CC3)nc12` [Example 440]: below 200 nM.

Consider `COc1cc(C(=O)NC[C@](O)(c2cc3c(c(-c4ccnc(Cl)c4Cl)n2)OC[C@]3(C)C(N)=O)C2CC2)cc2cn(C3(F)CC3)nc12` [Example 441], for which the EC50 was below 200 nM. Same read-out and setting: the same measure for `COc1cc(C(=O)NC[C@](O)(c2cc3c(c(-n4ccc5ccccc54)n2)OC[C@]3(C)C(N)=O)C2CC2)cc2cn(C(F)F)nc12` [Example 445]: below 200 nM; for `COc1cc(C(=O)NC[C@](O)(c2cc3c(c(-n4nnc5ccccc54)n2)OC[C@]3(C)C(N)=O)C2CC2)cc2cn(C3CC3)nc12` [Example 450]: below 200 nM; for `COc1cc(C(=O)NC[C@](O)(c2cc3c(c(-n4nc(Cl)c5ccccc54)n2)OC[C@]3(C)C(N)=O)C2CC2)cc2cn(C3CC3)nc12` [Example 451]: below 200 nM. The same measure, in the same setting: in the case of `COc1cc(C(=O)NC[C@](O)(c2cc3c(c(-n4ccc5c(F)cccc54)n2)OC[C@]3(C)C(N)=O)C2CC2)cc2cn(C3CC3)nc12` [Example 452] it was below 200 nM. Turning to `COc1cc(C(=O)NC[C@](O)(c2cc3c(c(-n4ccc5cc(F)ccc54)n2)OC[C@]3(C)C(N)=O)C2CC2)cc2cn(C3CC3)nc12` [Example 453], the EC50 was below 200 nM. The same measure, in the same setting: in the case of `COc1cc(C(=O)NC[C@](O)(c2cc3c(c(-n4ccc5ccc(F)cc54)n2)OC[C@]3(C)C(N)=O)C2CC2)cc2cn(C3CC3)nc12` [Example 454] it was below 200 nM. Compound `COc1cc(C(=O)NC[C@](O)(c2cc3c(c(-n4ccc5cccc(F)c54)n2)OC[C@]3(C)C(N)=O)C2CC2)cc2cn(C3CC3)nc12` [Example 455] displayed an EC50 below 200 nM. The compound `COc1cc(C(=O)NC[C@](O)(c2cc3c(c(-c4cc(C(F)(F)F)ncc4F)n2)OC[C@]3(C)C(N)=O)C2(F)CC2)cc2cn(C3CC3)nc12` [Example 458] displayed an EC50 below 200 nM.

Take `COc1cc(C(=O)NC[C@](O)(c2cc3c(c(-c4cc(C(F)(F)F)ncc4F)n2)OC[C@]3(C)C(N)=O)C2(F)CC2)cc2cn(C3(F)CC3)nc12` [Example 459]: the EC50 was below 200 nM. Still for that read-out and setting: in the case of `COc1cc(C(=O)NC[C@](O)(c2cc3c(c(-c4cc(C(F)(F)F)ncc4F)n2)OC[C@]3(C)C(N)=O)C2(F)CC2)cc2cn(C(F)F)nc12` [Example 460] it was below 200 nM; in that of `COc1cc(C(=O)NC[C@](O)(c2cc3c(c(-c4cc(C(F)(F)F)ncc4F)n2)OC[C@]3(C)C(N)=O)C2(F)CC2)cn2cc(C3CC3)nc12` [Example 461], below 200 nM. In turn, `COc1cc(C(=O)NC[C@](O)(c2cc3c(c(-c4cc(C(F)(F)F)ncc4F)n2)OC[C@]3(C)C(N)=O)C2(F)CC2)cc2cc(C3CC3)nn12` [Example 462] returned an EC50 below 200 nM. The same measure, in the same setting: in the case of `COc1cc(C(=O)NC[C@@](O)(c2cc(F)nc(F)c2)c2cc3c(c(-c4cccc(Cl)c4Cl)n2)OC[C@]3(C)C(N)=O)cc2cn(C3CC3)nc12` [Example 575] it was below 200 nM.

`COc1cc(C(=O)NC[C@](O)(c2cc3c(c(-c4cccc(F)c4Cl)n2)OC[C@]3(C)C(N)=O)C2CC2)cc2cn(C(F)F)nc12` [Example 614]: the EC50 is below 200 nM. On the same count and under the same terms, the same measure for `COc1cc(C(=O)NC[C@](O)(c2cc3c(c(-c4cccc(F)c4Cl)n2)OC[C@]3(C)C(N)=O)C2CC2)cc2oc(C3CC3)nc12` [Example 616]: below 200 nM; for `COc1cc(C(=O)NC[C@](O)(c2cc3c(c(-c4ccnc(C)c4Cl)n2)OC[C@]3(C)C(N)=O)C2CC2)cn2cc(C3CC3)nc12` [Example 672]: below 200 nM. The same measure, in the same setting: the same measure for `COc1cc(C(=O)NC[C@](O)(c2cc3c(c(-c4ccnc(C)c4Cl)n2)OC[C@]3(C)C(N)=O)C2CC2)cc2cc(C3CC3)nn12` [Example 673]: below 200 nM. Same read-out and setting: the same measure for `Cc1nccc(-c2nc([C@@](O)(CNC(=O)c3cc(Cl)c4nn(C5CC5)cc4c3)C3CC3)cc3c2OC[C@]3(C)C(N)=O)c1Cl` [Example 674]: below 200 nM; for `COc1cc(C(=O)NC[C@](O)(c2cc3c(c(-c4ccnc(C)c4Cl)n2)OC[C@]3(C)C(N)=O)C2CC2)cc2cc(Cl)c(C)nc12` [Example 675]: below 200 nM; for `C[C@]1(C(N)=O)COc2c1cc([C@@](O)(CNC(=O)c1cc(OCCO)c3nn(C4CC4)cc3c1)C1CC1)nc2-c1ccc(F)c(F)c1Cl` [Example 676]: below 200 nM. In turn, `C[C@]1(C(N)=O)COc2c1cc([C@@](O)(CNC(=O)c1cc(OCCO)c3nn(C4CC4)cc3c1)C1CC1)nc2-c1ccc(F)c(Cl)c1Cl` [Example 677] had an EC50 below 200 nM. Still for that read-out and setting: in the case of `COc1cc(C(=O)NC[C@](O)(c2cc3c(c(-n4ccc5c(F)cccc54)n2)OC[C@]3(C)C(N)=O)C(F)(F)F)cc2cn(C(F)F)nc12` [Example 684] it was below 200 nM; in that of `COc1cc(C(=O)NC[C@](O)(c2cc3c(c(-n4ccc5c(F)cccc54)n2)OC[C@]3(C)C(N)=O)C(F)(F)F)cc2cc(C3CC3)nn12` [Example 686], below 200 nM; in that of `COc1cc(C(=O)NC[C@](O)(c2cc3c(c(-n4ccc5ccccc54)n2)OC[C@]3(C)C(N)=O)C2(F)CC2)cc2cn(C3CC3)nc12` [Example 716], below 200 nM.

`COc1cc(C(=O)NC[C@@](O)(c2cc3c(c(-c4ccnc(Cl)c4Cl)n2)OC[C@]3(C)C(N)=O)C2CC2)cc2cn(C(F)F)nc12` [Example 733] returned an EC50 below 200 nM.

The compound `COc1cc(C(=O)NC[C@](O)(c2cc3c(c(-c4cncc(Cl)c4Cl)n2)OC[C@]3(C)C(N)=O)C2CC2)cc2cn(C3CC3)nc12` [Example 740] yielded an EC50 below 200 nM. `COc1cc(C(=O)NC[C@](O)(c2cc3c(c(-n4ccc5ccccc54)n2)OC[C@]3(C)C(N)=O)C2CC2)cc2cn(C3(F)CC3)nc12` [Example 741] returned an EC50 below 200 nM. The same measure, in the same setting: in the case of `COc1cc(C(=O)NC[C@](O)(c2cc3c(c(-n4ccc5ccccc54)n2)OC[C@]3(C)C(N)=O)C2CC2)cc2oc(C3CC3)nc12` [Example 748] it was below 200 nM. Still for that read-out and setting: the same measure for `COc1cc(C(=O)NC[C@](O)(c2cc3c(c(-c4ccnc(C)c4Cl)n2)OC[C@]3(C)C(N)=O)C2CC2)cc2cn(C(F)F)nc12` [Example 753]: below 200 nM.

One may read the EC50 as the concentration at which the effect is half-maximal. Read a high EC50 as a less potent agent.
